“Also recorded” adds a separate entry of the source.

The subject of data set [1] is retinal ganglion cells (RGCs). Kind of data set: Partial optic nerve crush injury: RGC survival after active immunization. Type of data set: in vivo, rats (SPD, Fisher, Lewis).
In data set [2] the test system is experimental autoimmune uveoretinitis (EAU). The settings on record: cited from earlier work; for uveitogenicity / immunopathogenicity: rat, in vivo.
The test system of data set [3] is retinal ganglion cells (RGCs). The data set can be described thus: Glutamate toxicity: RGC loss after intravitreal L-glutamate injection and immunization. Type of data set: in vivo. Conditions: Lewis rats.
Data set [4] deals with spinal cord. The data set can be described thus: Recovery from spinal cord contusion (open-field locomotor score). Type of data set: in vivo. The settings on record: female Lewis rats; contusion at T8; 100 μg in CFA (0.5 mg/ml) within 1 h after contusion.
Data set [5] concerns experimental autoimmune uveoretinitis (EAU). The data set can be described thus: Induction of uveitis / EAU by the peptide. The data set is classed as in vivo. Conditions: Lewis rats.
The test system of data set [6] is retinal ganglion cells (RGCs). Kind of data set: RGC survival after immunization in the absence of insult. The settings on record: for percentage of RGC survival (mean ± SEM) vs PBS-injected controls: immunization without insult.
The subject of data set [7] is retinal ganglion cells (RGCs). Conditions: glutamate insult or consequences of axonal injury; conditions where R16 protects; cited from earlier work.
[8] abbreviates: Fisher rats, 200 μg peptide in CFA immediately after optic nerve crush.
[9] abbreviates: Fisher rats, 200 μg peptide in CFA immediately after optic nerve crush, PBS control 109±12.

DTALASST [M-8 analog]: the “RGC survival compared with PBS-injected controls” value in data set [1] (setting [8]) is reported as “Significantly more RGCs”. Also, the “surviving RGCs per square millimeter (mean ± SEM)” value in data set [1] (setting [9]) stood at 159±19 per square millimeter. The “uveitogenicity / immunopathogenicity” value in data set [2] is recorded as “immunogenic, but not immunopathogenic”.
Consider TSSEAATE [G-8 analog], for which, in data set [1] (Fisher rats, 500 μg peptide in CFA immediately after optic nerve crush), the “RGC survival compared with PBS-injected controls” value was “Significantly more RGCs survived”. Moreover, the “surviving RGCs per square millimeter (mean ± SEM)” value in data set [1] (Fisher rats, 500 μg peptide in CFA immediately after optic nerve crush, PBS control 90±11) was 175±15 per square millimeter. For the same molecule, the “uveitogenicity / immunopathogenicity” value in data set [2] is “immunogenic, but not immunopathogenic”.
For DTNLASST [Peptide M-8], in data set [1] (setting [8]), the “RGC survival compared with PBS-injected controls” value is on record as “Significantly more RGCs”. In data set [1] (setting [9]), the “surviving RGCs per square millimeter (mean ± SEM)” value was found to be 153±10 per square millimeter. Moreover, the “uveitogenicity / immunopathogenicity” value in data set [2] is reported as “uveitogenic”.
Take “ADGSSWEGVGVVPVD (ADGSSWEGVGVVPDV) [Peptide R16]”: in data set [3] (400 nmol L-glutamate intravitreal, 30 μg peptide in CFA (0.5 mg/ml) immediately after, PBS in CFA control 28±4%), the “percentage of RGC loss (mean ± SEM) relative to normal retinas” value is reported as 14±2%. The “protection of RGCs from glutamate toxicity” value in data set [3] (peptide emulsified in CFA at 2.5 mg/ml, compared with PBS in CFA, data not shown) was “not protective and even caused additional neuronal loss”. The “recovery of motor activity (open-field motor score) vs PBS in CFA” value in data set [4] is on record as “did not affect spinal cord recovery; also recorded: At no time were any differences observed”. In addition, the “surviving RGCs per square millimeter (mean ± SEM)” value is on record as 183±16 per square millimeter in data set [1] (Fisher rats, 30 μg in CFA (2.5 mg/ml) immediately after optic nerve crush, PBS control 114±9); 165±22 per square millimeter in data set [1] (Fisher rats, 30 μg in CFA one week before crush, booster 30 μg in IFA after injury, PBS control 89±10); 192±8 per square millimeter in data set [1] (Lewis rats, 30 μg in CFA (2.5 mg/ml) immediately after optic nerve crush, PBS control 73±10); 117±21 per square millimeter in data set [1] (Lewis rats, 30 μg in CFA one week before crush, booster 30 μg in IFA after injury, PBS control 95±22, not statistically significant); 150±13 per square millimeter in data set [1] (SPD rats, 30 μg in CFA (2.5 mg/ml) immediately after optic nerve crush, PBS control 60±14). Further, in data set [1] (Lewis rats, 192±8 vs 73±10 surviving RGCs/mm^2), the “maximal benefit after a neuronal insult (surviving RGCs vs PBS)” value was 263%. The “clinical onset of EAU, day after immunization” value in data set [5] stood at 10 days. Moreover, the “peak of inflammation (EAU), day after immunization” value in data set [5] was determined as 14 days. Further, the “induction of uveitis” value in data set [2] (Lewis rats, but not SPD or Fisher rats) is on record as “known to cause uveitis in Lewis rats”. The “percentage of RGC survival (mean ± SEM) vs PBS-injected controls” value is listed as 97±8% in data set [6] (Fisher rats) and 83±5% in data set [6] (Lewis rats, 2 weeks after vaccination). Also, the “maximal loss of RGCs” value in data set [6] (non-injured Lewis rats, 2 weeks after vaccination) was roughly 17%.
For the molecule TSSEVATE [Peptide G-8], the “RGC survival compared with PBS-injected controls” value in data set [1] (setting [8]) was “Significantly more RGCs”. Besides, the “surviving RGCs per square millimeter (mean ± SEM)” value in data set [1] (setting [9]) is recorded as 159±5 per square millimeter. Moreover, the “uveitogenicity / immunopathogenicity” value in data set [2] is recorded as “uveitogenic”.

B1: MBP: myelin basic protein, a myelin antigen (protein, UniProt P02688 2-195, looked up)
Myelin basic protein: ASQKRPSQRHGSKYLATASTMDHARHGFLPRHRDTGILDSIGRFFSGDRGAPKRGSGKVPWLKQSRSPLPSHARSRPGLCHMYKDSHTRTTHYGSLPQKSQRTQDENPVVHFFKNIVTPRTPPPSQGKGRGLSLSRFSWGAEGQKPGFGYGGRASDYKSAHKGFKGAYDAQGTLSKIFKLGGRDSRSGSPMARR
In the case of B1, in data set [7], the “protective effect on RGCs by vaccination” value is recorded as “no such protective effect”.

Values taken from patent US20050220803A1, “Use of an organ-specific self-pathogen for treatment of a non-autoimmune disease of said organ” (Yeda Research and Development Co. Ltd., priority 2002, published 2005).
